Tests used:
[1] = target: T1, Cell surface CD73 of U87 MG human glioblastoma cells (Homo sapiens, UniProt P21589); experiment: CD73 Cellular Assay; assay type: cell-based; conditions: 5000 cells per well, 30 μM AMP substrate, read-out: Potency (IC50, CD73 cellular assay)
T1 construct: Cell surface CD73 catalyzes the conversion of adenosine monophosphate (AMP) to adenosine and inorganic phosphate; endogenous in cells; host or cells: U87 MG human glioblastoma cells
T1 sequence (P21589 27-549): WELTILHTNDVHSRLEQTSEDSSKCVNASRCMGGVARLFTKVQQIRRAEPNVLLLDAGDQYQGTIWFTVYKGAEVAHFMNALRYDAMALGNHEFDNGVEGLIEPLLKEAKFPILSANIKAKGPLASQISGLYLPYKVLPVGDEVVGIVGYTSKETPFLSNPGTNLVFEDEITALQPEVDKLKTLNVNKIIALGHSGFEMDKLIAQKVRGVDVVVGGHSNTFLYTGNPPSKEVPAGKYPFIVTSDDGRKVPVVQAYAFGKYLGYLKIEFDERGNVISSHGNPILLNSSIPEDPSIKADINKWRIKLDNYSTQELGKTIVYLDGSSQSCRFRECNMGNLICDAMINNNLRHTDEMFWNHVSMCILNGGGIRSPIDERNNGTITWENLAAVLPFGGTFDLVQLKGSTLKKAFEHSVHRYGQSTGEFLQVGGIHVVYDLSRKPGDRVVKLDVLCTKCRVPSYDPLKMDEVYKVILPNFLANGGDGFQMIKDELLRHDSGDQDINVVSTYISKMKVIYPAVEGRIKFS
Description: Cell surface CD73 catalyzes the conversion of adenosine monophosphate (AMP) to adenosine and inorganic phosphate. U87 MG human glioblastoma cells express high level of CD73. Cells are treated with compounds in a 96-well assay plate and supernatants are collected into a 384-well detection plate. The concentration of inorganic phosphate (Pi) in the supernatants is determined using the phosphate detection reagent, PiColorLock™ (Innova Bioscience, Cat #303-0125) following the manufacturer's instructions.
Briefly, on the day of the assay, U87 MG cells were harvested and resuspended in assay buffer which consisted of 20 mM HEPES, pH=7.4, 137 mM NaCl, 5.4 mM KCl, 1.3 mM CaCl2, 4.2 mM NaHCO3 and 0.1% glucose. To test the effect of compounds on cellular CD73 enzymatic activity, 500 nL/well of compounds dissolved in DMSO were added to a 96-well TC-treated microplate (Corning #3599). Next, 80 μL/well of U87 MG cells in assay buffer were added to assay plate. After 30 minutes of incubation in an atmosphere of 5% CO2 at 37° C., 20 μL/well of 150 μM AMP (Adenosine 5′-monophosphate monohydrate, Sigma, Cat #01930) in assay buffer was added to assay plate. Final assay conditions consisted of 5000 cells per well in 0.5% DMSO and 30 μM AMP substrate. After 50 minutes of incubation in an atmosphere of 5% CO2 at 37° C., 50 μL/well of supernatant was transferred to the 384-well detection plate (Corning® NBS™ 384 well plates, Cat #3640). Meanwhile “Gold mix” was prepared shortly before use by adding 1/100 volume of accelerator to the PiColorLock™ Gold reagent. 12 μL/well of the “Gold mix” was added to detection plate containing 50 μL/well of supernatant and incubated at 25° C. for 5 minutes. 5 μL/well stabilizer was added to the detection plate and incubated at 25° C. for 30 minutes. The absorbance at 635 nm was measured on a Spark 10M instrument (TECAN). The percent (%) inhibition at each concentration of a compound was calculated relative to the OD value in the Max and Min control wells contained within each assay plate. The Max control wells contained cells and substrate as 0% inhibition, and the Min control wells only contained cells as 100% inhibition. The concentrations and percent inhibition values for a test compound are plotted and the concentration of a the compound required to achieve 50% inhibition (IC50) was determined with a four-parameter logistic dose response equation.

[2] = target: T2, Recombinant Human 5′-Nucleotidase (CD73) (Homo sapiens, UniProt P21589); experiment: CD73 Enzyme Assay; assay type: biochemical; conditions: human CD73 0.5 nM, AMP 30 μM, PiColorLock phosphate detection; read-out: Potency (IC50, CD73 enzyme assay)
T2 construct: CHO derived CD73 (Trp27-Lys547), with a C-terminal 6-His tag; 6-His (C); purchased R&D 5795-EN; host or cells: CHO
T2 sequence (P21589 27-547): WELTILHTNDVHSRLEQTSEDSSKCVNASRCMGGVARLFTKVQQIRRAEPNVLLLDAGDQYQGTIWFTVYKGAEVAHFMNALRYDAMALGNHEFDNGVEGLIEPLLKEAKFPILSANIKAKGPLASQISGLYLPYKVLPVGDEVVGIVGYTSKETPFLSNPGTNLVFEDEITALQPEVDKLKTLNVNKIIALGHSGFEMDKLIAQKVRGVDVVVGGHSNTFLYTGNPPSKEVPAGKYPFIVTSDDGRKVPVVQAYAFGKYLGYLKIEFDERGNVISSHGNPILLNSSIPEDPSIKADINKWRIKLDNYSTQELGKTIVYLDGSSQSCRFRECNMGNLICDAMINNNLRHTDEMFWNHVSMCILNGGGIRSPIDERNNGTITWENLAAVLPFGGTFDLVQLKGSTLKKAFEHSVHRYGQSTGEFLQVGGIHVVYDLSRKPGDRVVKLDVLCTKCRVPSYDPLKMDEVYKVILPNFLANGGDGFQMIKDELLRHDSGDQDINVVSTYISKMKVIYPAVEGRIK
In short: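 Human CD73 (CHO-derived Trp27-Lys547, His-tagged; 0.5 nM final) was preincubated with compound for 15 min at 25° C. in Tris pH 7.5 buffer with MgCl2. It then reacted with 30 μM AMP for 20 min at 37° C., and released phosphate was read by malachite green absorbance at 635 nm. IC50 came from four-parameter fits against enzyme and no-enzyme controls.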

SMILES	IC50 [1]	IC50 [2]
O=P(O)(O)CP(=O)(O)OC[C@H]1O[C@@H](c2coc3c(NCc4ccccc4)nc(Cl)nc23)[C@H](O)[C@@H]1O [Compound 15, [({[(2R,3S,4R,5S)-5-[4-(benzylamino)-2-chlorofuro[3,2-d]pyrimidin-7-yl]-3,4-dihydroxyoxolan-2-yl]methoxy}(hydroxy)phosphoryl)methyl]phosphonic Acid]	< 1 nM	< 10 nM
O=P(O)(O)CP(=O)(O)OC[C@H]1O[C@@H](c2ccc3c(NCc4ccccc4)ncnn23)[C@H](O)[C@@H]1O [Compound 16, (((((2R,3S,4R,1S)-5-(4-(benzylamino)pyrrolo[2,1-f][1,2,4]triazin-7-yl)-3,4-dihydroxytetrahydrofuran-2-yl)methoxy)(hydroxy)phosphoryl)methyl)phosphonic acid]	1 to 9.9 nM	10 to 99 nM
CO[C@H]1CC[C@H](Nc2nc(Cl)nn3c([C@@H]4O[C@H](COP(=O)(O)CP(=O)(O)O)[C@@H](O)[C@H]4O)cnc23)CC1 [Compound 17, (((((2R,3S,4R,1S)-5-(2-chloro-4-(((1r,4S)-4-methoxycyclohexyl)amino)imidazo[2,1-f][1,2,4]triazin-7-yl)-3,4-dihydroxytetrahydrofuran-2-yl)methoxy)(hydroxy)phosphoryl)methyl)phosphonic acid]	< 1 nM	< 10 nM
O=P(O)(O)CP(=O)(O)OC[C@H]1O[C@@H](c2cnc3c(N4CCc5ccccc54)nc(Cl)nn23)[C@H](O)[C@@H]1O [Compound 18, (((((2R,3S,4R,1S)-5-(2-chloro-4-(indolin-1-yl)imidazo[2,1-f][1,2,4]triazin-7-yl)-3,4-dihydroxytetrahydrofuran-2-yl)methoxy)(hydroxy)phosphoryl)methyl)phosphonic Acid]	1 to 9.9 nM	< 10 nM
O=P(O)(O)CP(=O)(O)OC[C@H]1O[C@@H](c2cnc3c(N4CCc5ccccc5C4)nc(Cl)nn23)[C@H](O)[C@@H]1O [Compound 19, (((((2R,3S,4R,1S)-5-(2-chloro-4-(3,4-dihydroisoquinolin-2(1H)-yl)imidazo[2,1-f][1,2,4]triazin-7-yl)-3,4-dihydroxytetrahydrofuran-2-yl)methoxy)(hydroxy)phosphoryl)methyl)phosphonic Acid]	< 1 nM	< 10 nM
O=P(O)(O)CP(=O)(O)OC[C@H]1O[C@@H](c2cnc3c(NC4CCCCC4)nc(Cl)nn23)[C@H](O)[C@@H]1O [Compound 20, (((((2R,3S,4R,1S)-5-(2-chloro-4-(cyclohexylamino)imidazo[2,1-f][1,2,4]triazin-7-yl)-3,4-dihydroxytetrahydrofuran-2-yl)methoxy)(hydroxy)phosphoryl)methyl)phosphonic Acid]	< 1 nM	< 10 nM
O=P(O)(O)CP(=O)(O)OC[C@H]1O[C@@H](c2cnc3c(N[C@H]4CCOC4)nc(Cl)nn23)[C@H](O)[C@@H]1O [Compound 21, [({[(2R,3S,4R,5S)-5-{2-chloro-4-[(3S)-oxolan-3-ylamino]imidazo[2,1-f][1,2,4]triazin-7-yl}-3,4-dihydroxyoxolan-2-yl]methoxy}(hydroxy)phosphoryl)methyl]phosphonic Acid]	< 1 nM	< 10 nM
O=P(O)(O)CP(=O)(O)OC[C@H]1O[C@@H](c2cnc3c(N[C@@H]4CCOC4)nc(Cl)nn23)[C@H](O)[C@@H]1O [Compound 22, (((((2R,3S,4R,1S)-5-(2-chloro-4-(((R)-tetrahydrofuran-3-yl)amino)imidazo[2,1-f][1,2,4]triazin-7-yl)-3,4-dihydroxytetrahydrofuran-2-yl)methoxy)(hydroxy)phosphoryl)methyl)phosphonic Acid]	< 1 nM	< 10 nM
COC1CCC(Nc2nc(Cl)nn3c([C@@H]4O[C@H](COP(=O)(O)CP(=O)(O)O)[C@@H](O)[C@H]4O)cnc23)C1 (stereo partly drawn) [Compound 23, (((((2R,3S,4R,1S)-5-(2-chloro-4-((3-methoxycyclopentyl)amino)imidazo[2,1-f][1,2,4]triazin-7-yl)-3,4-dihydroxytetrahydrofuran-2-yl)methoxy)(hydroxy)phosphoryl)methyl)phosphonic acid]	< 1 nM	< 10 nM
O=P(O)(O)CP(=O)(O)OC[C@H]1O[C@@H](c2cnc3c(N4Cc5ccccc5C4)nc(Cl)nn23)[C@H](O)[C@@H]1O [Compound 24, [({[(2R,3S,4R,5S)-5-[2-chloro-4-(1,3-dihydroisoindol-2-yl)imidazo[2,1-f][1,2,4]triazin-7-yl]-3,4-dihydroxyoxolan-2-yl]methoxy}(hydroxy)phosphoryl)methyl]phosphonic acid]	< 1 nM	< 10 nM
CO[C@H]1CC[C@@H](Nc2nc(Cl)nn3c([C@@H]4O[C@H](COP(=O)(O)CP(=O)(O)O)[C@@H](O)[C@H]4O)cnc23)CC1 [Compound 27, (((((2R,3S,4R,1S)-5-(2-chloro-4-(((1s,4R)-4-methoxycyclohexyl)amino)imidazo[2,1-f][1,2,4]triazin-7-yl)-3,4-dihydroxytetrahydrofuran-2-yl)methoxy)(hydroxy)phosphoryl)methyl)phosphonic Acid]	< 1 nM	< 10 nM
O=P(O)(O)CP(=O)(O)OC[C@H]1O[C@@H](c2cnc3c(N[C@@H]4CCc5ccccc54)nc(Cl)nn23)[C@H](O)[C@@H]1O [Compound 28, (((((2R,3S,4R,1S)-5-(2-chloro-4-(((R)-2,3-dihydro-1H-inden-1-yl)amino)imidazo[2,1-f][1,2,4]triazin-7-yl)-3,4-dihydroxytetrahydrofuran-2-yl)methoxy)(hydroxy)phosphoryl)methyl)phosphonic Acid]	< 1 nM	< 10 nM
CN(c1nc(Cl)nn2c([C@@H]3O[C@H](COP(=O)(O)CP(=O)(O)O)[C@@H](O)[C@H]3O)cnc12)C1CCc2ccccc21 (stereo partly drawn) [Compound 29, (((((2R,3S,4R,1S)-5-(2-chloro-4-(((R)-2,3-dihydro-1H-inden-1-yl)(methyl)amino)imidazo[2,1-f][1,2,4]triazin-7-yl)-3,4-dihydroxytetrahydrofuran-2-yl)methoxy)(hydroxy)phosphoryl)methyl)phosphonic Acid]	< 1 nM	< 10 nM

From patent US20220204539A1, “CD73 INHIBITORS” (BioArdis LLC, priority 2019, published 2022)
